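Test compounds were applied to cells in 96-well plates for 48 hours at 5 doses. TGI marks complete inhibition of growth.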
Tests used:
Assay in all cases: NCI tumour cell line growth inhibition, 48 h
[1] = test system: P388/ADR leukemia
[2] = test system: NCI-H226 lung
[3] = test system: TK-10 renal
[4] = test system: SN12K1 renal
[5] = test system: OVCAR-5 ovarian
[6] = test system: MDA-MB-231 breast
[7] = test system: HOP-92 NSCLC
[8] = test system: NCI-H522 lung
[9] = test system: CCRF-CEM leukemia
[10] = test system: A498 renal
[11] = test system: HCC-2998 colon
[12] = test system: XF 498 CNS
[13] = test system: SK-MEL-28 melanoma
[14] = test system: SW-620 colon
[15] = test system: MOLT-4 leukemia
[16] = test system: A549 NSCLC
[17] = test system: HOP-18 NSCLC
[18] = test system: SF-295 CNS
[19] = test system: SNB-75 CNS
[20] = test system: NCI-H460 lung
[21] = test system: PC-3 prostate
[22] = test system: LOX IMVI melanoma
[23] = test system: SK-OV-3 ovarian
[24] = test system: MDA-N
[25] = test system: HL-60(TB) leukemia
[26] = test system: SN12C renal
[27] = test system: T-47D breast
[28] = test system: U251 CNS
[29] = test system: DU-145 prostate
[30] = test system: SNB-19 CNS
[31] = test system: SR leukemia
[32] = test system: HS 578T breast
[33] = test system: 786-0 renal
[34] = test system: MCF7 breast
[35] = test system: EKVX NSCLC
[36] = test system: HCT-15 colon
[37] = test system: OVCAR-8 ovarian
[38] = test system: SK-MEL-5 melanoma
[39] = test system: OVCAR-4 ovarian
[40] = test system: COLO 205 colon
[41] = test system: IGROV1 ovarian
[42] = test system: HT29 colon
[43] = test system: NCI/ADR-RES ovarian
[44] = test system: DMS 114 small cell lung
[45] = test system: UO-31 renal
[46] = test system: ACHN renal
[47] = test system: NCI-H23 lung
[48] = test system: M14 melanoma
[49] = test system: K-562 leukemia
[50] = test system: UACC-62 melanoma
[51] = test system: UACC-257 melanoma
[52] = test system: KM20L2 colon
[53] = test system: RXF 393 renal
[54] = test system: SF-268 CNS
[55] = test system: BT-549 breast
[56] = test system: MALME-3M melanoma
[57] = test system: OVCAR-3 ovarian
[58] = test system: SF-539 CNS
[59] = test system: SK-MEL-2 melanoma
[60] = test system: MDA-MB-435
[61] = test system: SNB-78 CNS
[62] = test system: HOP-62 NSCLC
[63] = test system: DLD-1 colon
[64] = test system: CAKI-1 renal
[65] = test system: KM12 colon
[66] = test system: P388 leukemia
[67] = test system: HCT-116 colon
[68] = test system: M19-MEL melanoma
[69] = test system: LXFL 529 NSCLC
[70] = test system: DMS 273 small cell lung
[71] = test system: RXF-631 renal
[72] = test system: RPMI-8226 leukemia

With `CC1(C)N=C(N)N=C(N)N1c1ccc(CCCCc2ccc(S(=O)(=O)F)cc2Cl)c(Cl)c1` the TGI [1] was 7.56 µM, the TGI [2] was 158 µM and the TGI [3] was 231 µM. The TGI [4] was 6.92 µM, the TGI [5] was 198 µM and the TGI [6] was 82.3 µM. For the same molecule, the TGI [7] was 48.6 µM, the TGI [8] was 31.4 µM and the TGI [9] was 8.28 µM. The TGI [10] was 261 µM, the TGI [11] was 67.1 µM and the TGI [12] was 3 µM. It also gave a TGI [13] of 13.4 µM, a TGI [14] of 360 µM and a TGI [15] of 10.6 µM. For the same molecule, the TGI [16] was 200 µM, the TGI [17] was 121 µM and the TGI [18] was 192 µM. The TGI [19] was 54.7 µM, the TGI [20] was 80.8 µM and the TGI [21] was 112 µM. For the same molecule, the TGI [22] was 43.9 µM, the TGI [23] was 351 µM and the TGI [24] was 39.5 µM. It also gave a TGI [25] of 11.6 µM, a TGI [26] of 90.3 µM and a TGI [27] of 34.8 µM. It also gave a TGI [28] of 53.2 µM, a TGI [29] of 90.4 µM and a TGI [30] of 125 µM. For the same molecule, the TGI [31] was > 500 µM, the TGI [32] was > 500 µM and the TGI [33] was 76.9 µM. It also gave a TGI [34] of 28.7 µM, a TGI [35] of 161 µM and a TGI [36] of 193 µM. The TGI [37] was 261 µM, the TGI [38] was 31.7 µM and the TGI [39] was > 468 µM. For the same molecule, the TGI [40] was 78 µM, the TGI [41] was 106 µM and the TGI [42] was 298 µM. The TGI [43] was 347 µM, the TGI [44] was 16.4 µM and the TGI [45] was 224 µM. For the same molecule, the TGI [46] was 142 µM, the TGI [47] was 200 µM and the TGI [48] was > 382 µM. For the same molecule, the TGI [49] was 64.3 µM, the TGI [50] was 46.9 µM and the TGI [51] was 64 µM. It also gave a TGI [52] of 163 µM, a TGI [53] of 187 µM and a TGI [54] of 29.3 µM. The TGI [55] was 14.5 µM, the TGI [56] was 33.8 µM and the TGI [57] was 87 µM. For the same molecule, the TGI [58] was 13.9 µM, the TGI [59] was 20.3 µM and the TGI [60] was > 500 µM. It also gave a TGI [61] of 48.6 µM, a TGI [62] of 47.2 µM and a TGI [63] of 118 µM. The TGI [64] was 128 µM, the TGI [65] was 9.77 µM and the TGI [66] was 6.36 µM. The TGI [67] was 140 µM.

Work on `CC1=C[C@@H]2Cc3occc3C(C)(C)[C@@H]2CC1` yielded a TGI [2] of 32.8 µM, a TGI [3] of 45.4 µM and a TGI [5] of 50.3 µM. It also gave a TGI [7] of 38.9 µM, a TGI [8] of 28.6 µM and a TGI [9] of 35.6 µM. The TGI [10] was 49.6 µM, the TGI [11] was 36.2 µM and the TGI [12] was 29.3 µM. The TGI [13] was 49.5 µM, the TGI [14] was 31.8 µM and the TGI [15] was 39.4 µM. It also gave a TGI [16] of 49.6 µM, a TGI [17] of 54 µM and a TGI [18] of 34.1 µM. The TGI [19] was 33.5 µM, the TGI [22] was 33.6 µM and the TGI [23] was > 100 µM. It also gave a TGI [25] of 39.1 µM, a TGI [26] of 29.8 µM and a TGI [28] of 32.7 µM. The TGI [68] was 31.2 µM, the TGI [30] was > 10 µM and the TGI [31] was 32.7 µM. The TGI [33] was 34.1 µM, the TGI [35] was 33 µM and the TGI [37] was 37.5 µM. The TGI [38] was 33.1 µM, the TGI [39] was 84.4 µM and the TGI [40] was 33.7 µM. The TGI [41] was > 10 µM, the TGI [42] was 30.3 µM and the TGI [44] was 35.9 µM. For the same molecule, the TGI [45] was 33.8 µM, the TGI [46] was 29.4 µM and the TGI [47] was 57.3 µM. The TGI [48] was 47.1 µM, the TGI [49] was 42.6 µM and the TGI [50] was > 10 µM. The TGI [51] was 44.7 µM, the TGI [69] was > 100 µM and the TGI [70] was 26.8 µM. The TGI [52] was 33.8 µM, the TGI [53] was 33.7 µM and the TGI [54] was 38.3 µM. For the same molecule, the TGI [56] was 44.2 µM, the TGI [57] was 31.5 µM and the TGI [58] was 58.7 µM. It also gave a TGI [59] of 24.5 µM, a TGI [61] of 66.6 µM and a TGI [62] of 92.2 µM. The TGI [63] was 32.8 µM, the TGI [64] was 52.2 µM and the TGI [65] was 33.4 µM. It also gave a TGI [71] of 38.5 µM and a TGI [67] of 33.7 µM.

For `C=C1CC(OC)(C(O)C(=O)N[C@H]2OCO[C@H]3C2O[C@H](C[C@@H](COC)OC)C(C)(C)C3OC)O[C@H](C)[C@@H]1C` (some centres not stated), the TGI [2] was < 0.00482 µM, the TGI [4] was < 0.00482 µM and the TGI [9] was < 0.00482 µM. For the same molecule, the TGI [10] was < 0.00482 µM, the TGI [11] was < 0.00482 µM and the TGI [12] was < 0.00482 µM. For the same molecule, the TGI [13] was < 0.00482 µM, the TGI [14] was 48.2 µM and the TGI [17] was < 0.00482 µM. For the same molecule, the TGI [18] was < 0.00482 µM, the TGI [19] was < 0.00482 µM and the TGI [20] was < 0.00482 µM. For the same molecule, the TGI [26] was < 0.00482 µM, the TGI [28] was < 0.00482 µM and the TGI [68] was < 0.00482 µM. For the same molecule, the TGI [30] was < 0.00482 µM, the TGI [34] was < 0.00482 µM and the TGI [35] was < 0.00482 µM. The TGI [36] was < 0.00482 µM, the TGI [38] was < 0.00482 µM and the TGI [39] was < 0.00482 µM. For the same molecule, the TGI [40] was < 0.00482 µM, the TGI [41] was < 0.00482 µM and the TGI [42] was < 0.00482 µM. The TGI [43] was < 0.00482 µM, the TGI [44] was < 0.00482 µM and the TGI [45] was < 0.00482 µM. For the same molecule, the TGI [72] was < 0.00482 µM, the TGI [49] was < 0.00482 µM and the TGI [50] was < 0.00482 µM. For the same molecule, the TGI [51] was < 0.00482 µM, the TGI [52] was < 0.00482 µM and the TGI [53] was < 0.00482 µM. The TGI [54] was < 0.00482 µM, the TGI [58] was < 0.00482 µM and the TGI [61] was < 0.00482 µM. The TGI [63] was < 0.00482 µM, the TGI [65] was < 0.00482 µM and the TGI [67] was < 0.00482 µM.

— PubChem BioAssay (NCI)
